Values quoted from earlier work as cited in US20090054377A1, “COMPOSITIONS AND METHODS FOR SMOKING CESSATION” (MODUS BIOLOGICAL MEMBRANES LTD., priority 2004, published 2009).
Where two headings read alike, the source gives them in different places.

Experiments:
[1] = tested on: smokers; details: in vivo
[2] = tested on: smokers
[3] = other smoking cessation remedies

For `CC(NC(C)(C)C)C(=O)c1cccc(Cl)c1` (stereo not shown) [Bupropion (Zyban), Bupropion], the “Adverse Events: Anxiety” value [1] is given as 8%, the “Adverse Events: Constipation” value [1] is given as 8% and the “Adverse Events: Diarrhea” value [1] is given as 4%. The “Adverse Events: Dizziness” value [1] was 8-10%, the “Adverse Events: Dream abnormality” value [1] was 5% and the “Adverse Events: Dry Mouth” value [1] was 1-11%. For the same molecule, the “Adverse Events: Insomnia” value [1] was 31-40%, the “Adverse Events: Rhinitis” value [1] was 12% and the “Adverse Events: Seizures” value [1] was 0.4%. The “% Quitters” value ([2]; 300 mg/day) was 25%, the “Absolute quit rate (quit rate − quit rate of placebo)” value ([2]; 300 mg/day) was 11 and the “% Quitters” value [2, 3] was 22.5%. For the same molecule, the “Absolute quit rate (quit rate − quit rate of placebo)” value [2, 3] was 13.5.
